The values below come from ChEMBL document CHEMBL4196009, “Novel vitexin-inspired scaffold against leukemia” (Eur J Med Chem, 2018).

One test relates to KOPN-8. Put plainly: Antiproliferative activity against human KOPN8 cells after 72 hrs by CelTiter-Glo assay. It counts as functional, cell-based. Particulars: KOPN-8, 72 h.
Another test relates to SEM cells. Put plainly: Antiproliferative activity against human SEM cells after 72 hrs by CelTiter-Glo assay. It counts as functional, cell-based.
Another test has as its system SUP-B15. Put plainly: Antiproliferative activity against human SUP-B15 cells after 72 hrs by CelTiter-Glo assay. In kind it is functional, cell-based. Particulars: SUP-B15, 72 h.
The next test has as its system UoC-B1. Put plainly: Antiproliferative activity against human UOCB1 cells after 72 hrs by CelTiter-Glo assay. Particulars: UoC-B1, 72 h. It counts as functional, cell-based.
The test system of another test is HepG2. Put plainly: Antiproliferative activity against human HepG2 cells after 72 hrs by CelTiter-Glo assay. It counts as functional, cell-based. Particulars: HepG2, 72 h.
The next test deals with BJ. Nature of the test: Antiproliferative activity against human BJ cells after 72 hrs by CelTiter-Glo assay. In kind it is cell-based.

Where only a bound is given, the exact number is not on record here.

Consider `COC(=O)c1cc(=O)c2cc(NC(=O)NC34CC5CC(CC(C5)C3)C4)ccc2[nH]1`, for which the EC50 with KOPN-8 was > 16.2 µM; with SEM cells it was > 16.2 µM; in the test with SUP-B15 it was 9.1 µM; in the test with UoC-B1, > 16.2 µM; in the test on HepG2 it was > 16.2 µM; in the test with BJ, > 32.2 µM.
For the compound `COc1ccc(-c2cc(=O)c3c(OC)cc(OC)cc3n2S(=O)(=O)c2ccc(C)cc2)cc1`, the concentration giving a half-maximal response (EC50) with KOPN-8, in the test with SUP-B15, in the test with HepG2 and in the test with BJ was > 44.8 µM each time.
With `COc1cc(OC)c2c(=O)cc(C(=O)Nc3ccc(C4CCCCC4)cc3)[nH]c2c1`, the EC50 was 18.4 µM in the test on KOPN-8, > 43.1 µM with SUP-B15, > 43.1 µM with HepG2 and 36.2 µM in the test with BJ.
In the case of `O=c1cc(-c2ccccc2)oc2cc(O)c(O)c(O)c12` [BAICALEIN], the concentration giving a half-maximal response (EC50) is 16 µM with KOPN-8, 103 µM with SUP-B15, 60 µM with HepG2 and > 86.2 µM with BJ.
In the case of `COC(=O)c1cc(=O)c2c(OC)cc(OC)cc2n1C`, the EC50 was > 19 µM with KOPN-8; > 19 µM in the test on SEM cells; > 37.9 µM in the test on SUP-B15; 0.773 µM with UoC-B1; > 19 µM with HepG2; > 37.9 µM in the test on BJ.
For the compound `COc1ccc(-c2cc(=O)c3c(OC)cc(OC)cc3n2S(=O)(=O)c2ccc(Br)s2)cc1`, the EC50 in the test with KOPN-8, with SUP-B15, with HepG2 and in the test with BJ was > 48.3 µM each time.
Take `COc1ccc(-c2[nH]c3cc(OC)cc(OC)c3c(=O)c2I)cc1`: the concentration for a half-maximal effect (EC50) with KOPN-8 was 49.4 µM; in the test on SUP-B15, > 86.2 µM; with HepG2 it was > 86.2 µM; in the test with BJ, > 86.2 µM.
Regarding `COc1ccc(-c2cc(=O)c3c(OC)cc(OC)cc3n2S(=O)(=O)c2ccc(C#N)cc2)cc1`, the half-maximal effective concentration (EC50) was > 17.2 µM in the test on KOPN-8; 1.3 µM in the test on SEM cells; 7.9 µM in the test with SUP-B15; > 17.2 µM in the test with HepG2; > 17.2 µM with BJ.
With `COC(=O)c1cc(=O)c2cc(NC(=O)Nc3ccc4c(c3)CCC4)ccc2[nH]1`, the EC50 with KOPN-8, with SEM cells, in the test with SUP-B15, in the test with UoC-B1, in the test on HepG2 and in the test on BJ was > 24.1 µM throughout.
Regarding `COc1cc(OC)c2c(=O)cc(C(=O)Nc3cc(C(F)(F)F)ccc3Oc3ccccc3OC)[nH]c2c1`, the EC50 was > 53.4 µM with KOPN-8; 10.8 µM in the test with SEM cells; > 53.4 µM in the test on SUP-B15; 10.7 µM with HepG2; > 53.4 µM with BJ.
With `COC(=O)c1cc(=O)c2cc([N+](=O)[O-])ccc2[nH]1`, the half-maximal effective concentration (EC50) with KOPN-8 was > 41.6 µM; in the test on SEM cells it was > 41.6 µM; with SUP-B15, 76.5 µM; in the test on UoC-B1 it was > 41.6 µM; with HepG2, > 41.6 µM; in the test with BJ, > 82.8 µM.
Take `COc1cc(OC)c2c(=O)cc(C(=O)Nc3ccc(N4CCOCC4)cc3)[nH]c2c1`: the EC50 in the test on KOPN-8, with SUP-B15, with HepG2 and in the test with BJ was > 36.8 µM throughout.
As for `O=c1c(-c2ccc(O)cc2)coc2cc(O)cc(O)c12` [GENISTEIN], the concentration for a half-maximal effect (EC50) in the test with KOPN-8 is > 86.2 µM; in the test with SEM cells, 59.3 µM; with SUP-B15, > 86.2 µM; with UoC-B1 it was 35.7 µM; in the test with HepG2, 67.7 µM; in the test on BJ, > 86.2 µM.
In the case of `COC(=O)c1cc(=O)c2cc(NC(=O)Nc3ccc4c(c3)CCN4C)ccc2[nH]1`, the concentration giving a half-maximal response (EC50) in the test with KOPN-8, in the test with SEM cells, with SUP-B15, in the test on UoC-B1, in the test with HepG2 and in the test with BJ was > 86.2 µM throughout.
In the case of `COc1ccc(Oc2ccc(C(F)(F)F)cc2NC(=O)c2cc(=O)c3c(OC)cc(OC)cc3[nH]2)cc1`, the EC50 in the test with KOPN-8 was > 67.2 µM; with SEM cells it was > 67.2 µM; in the test with SUP-B15 it was > 67.2 µM; with UoC-B1, > 67.2 µM; in the test on HepG2, 5.3 µM; in the test with BJ, > 67.2 µM.
For the compound `COc1ccc(-c2cc(=O)c3c(OC)cc(OC)cc3n2S(=O)(=O)c2ccc(Br)cc2)cc1`, the EC50 is > 86.2 µM with KOPN-8, 63.8 µM in the test with SUP-B15, 16.3 µM in the test with HepG2 and > 86.2 µM in the test with BJ.
In the case of `COC(=O)c1cc(=O)c2cc(NC(=O)Nc3cc(F)cc(C(F)(F)F)c3)ccc2[nH]1`, the concentration for a half-maximal effect (EC50) in the test on KOPN-8 was > 20.2 µM; in the test on SEM cells, > 20.2 µM; in the test on SUP-B15 it was > 40.2 µM; in the test with UoC-B1, > 20.2 µM; with HepG2, > 20.2 µM; in the test with BJ it was > 40.2 µM.
Regarding `COc1ccc(-c2cc(=O)c3c(OC)cc(OC)cc3n2S(=O)(=O)c2c(C(C)C)cc(C(C)C)cc2C(C)C)cc1`, the EC50 in the test on KOPN-8 is > 341 µM; with SUP-B15 it was 43.3 µM; in the test on HepG2, > 341 µM; in the test on BJ, > 341 µM.
Turning to `COc1cc(OC)c2c(=O)cc(C(=O)Nc3ccc(S(=O)(=O)c4ccccc4)cc3)[nH]c2c1`, the concentration giving a half-maximal response (EC50) with KOPN-8, with SUP-B15, in the test on HepG2 and in the test with BJ was > 70.7 µM throughout.
Take `COc1ccc(-c2cc(=O)c3c(OC)cc(OC)cc3n2S(=O)(=O)c2ccc(Cl)cc2)cc1`: the EC50 in the test with KOPN-8, in the test on SUP-B15, with HepG2 and in the test with BJ was > 34.5 µM in each case.
In the case of `COc1ccc(-c2cc(=O)c3c(OC)cc(OC)cc3n2S(=O)(=O)c2ccc(C=O)cc2)cc1`, the concentration for a half-maximal effect (EC50) in the test on KOPN-8, with SUP-B15, in the test with HepG2 and in the test on BJ was > 34.5 µM each time.
Take `COC(=O)c1cc(=O)c2cc(NC(=O)Nc3ccc(C(F)(F)F)cc3)ccc2[nH]1`: the concentration giving a half-maximal response (EC50) in the test on KOPN-8 is > 6.35 µM; in the test on SEM cells, > 6.35 µM; with SUP-B15 it was 3.27 µM; in the test with UoC-B1, > 6.35 µM; with HepG2, > 6.35 µM; in the test on BJ, > 12.6 µM.
Consider `COC(=O)c1cc(=O)c2cc(NC(=O)Nc3ccc4c(c3)OCCO4)ccc2[nH]1`, for which the EC50 in the test on KOPN-8 was > 13.3 µM; in the test with SEM cells, > 13.3 µM; with SUP-B15 it was > 26.4 µM; in the test with UoC-B1, > 13.3 µM; in the test with HepG2, > 13.3 µM; in the test on BJ, > 26.4 µM.
With `COc1ccc(-c2cc(=O)c3c(OC)cc(OC)cc3n2S(=O)(=O)c2ccc(C)c([N+](=O)[O-])c2)cc1`, the EC50 in the test with KOPN-8, in the test on SUP-B15, with HepG2 and in the test with BJ was > 51.7 µM in each case.
Take `COc1ccc(-c2cc(=O)c3c(OC)cc(OC)cc3n2C)cc1`: the EC50 stood at 30 µM with KOPN-8, 26 µM in the test with SEM cells, 28 µM in the test with SUP-B15 and 68 µM in the test on BJ.
For `C=CCNC(=O)n1c(-c2ccc(OC)cc2)cc(=O)c2c(OC)cc(OC)cc21`, the concentration for a half-maximal effect (EC50) with KOPN-8 was 12 µM; in the test on SEM cells, 12 µM; with SUP-B15 it was 16 µM; with HepG2, > 20 µM; with BJ, 74 µM.
In the case of `COc1ccc(-c2cc(=O)c3c(OC)cc(OC)cc3n2S(=O)(=O)c2ccc(OC)cc2)cc1`, the EC50 in the test with KOPN-8, in the test on SUP-B15, with HepG2 and in the test with BJ was > 82.8 µM in each case.
`Nc1ccc2nc(C(=O)O)cc(O)c2c1`: the EC50 in the test on SEM cells was determined as 29 µM; with SUP-B15, 46 µM; in the test with BJ, 371 µM.
Take `COc1ccc(-c2cc(=O)c3c(OC)cc(OC)cc3n2S(=O)(=O)c2ccc([N+](=O)[O-])cc2)cc1`: the EC50 is 17.3 µM with KOPN-8, 17.1 µM in the test with SUP-B15, > 29.3 µM with HepG2 and > 29.3 µM with BJ.
Turning to `COc1ccc(-c2cc(=O)c3c(OC)cc(OC)cc3n2S(=O)(=O)c2c(F)c(F)c(F)c(F)c2F)cc1`, the EC50 in the test with KOPN-8 is > 34.5 µM; in the test on SEM cells, 3.9 µM; in the test with SUP-B15, 4.1 µM; with HepG2, > 34.5 µM; with BJ it was > 34.5 µM.
Turning to `COc1ccc(-c2cc(=O)c3c(OC)cc(OC)cc3n2S(=O)(=O)c2ccc(F)cc2)cc1`, the EC50 in the test with KOPN-8, in the test on SUP-B15, in the test on HepG2 and in the test on BJ was > 65.5 µM each time.
As to `COc1cc(OC)c2c(=O)cc(C(=O)Nc3ccccc3S(C)(=O)=O)[nH]c2c1`, the EC50 with KOPN-8, with SUP-B15, with HepG2 and in the test with BJ was > 39.7 µM throughout.
Regarding `COc1ccc(-c2cc(=O)c3c(OC)cc(OC)cc3n2S(=O)(=O)c2cc(F)c(F)c(F)c2)cc1`, the concentration giving a half-maximal response (EC50) in the test on KOPN-8, with SUP-B15, in the test on HepG2 and in the test on BJ was > 65.5 µM throughout.
As to `COc1ccc(-c2cc(=O)c3c(OC)cc(OC)cc3n2S(=O)(=O)c2cc(Cl)cc(Cl)c2O)cc1`, the half-maximal effective concentration (EC50) with KOPN-8, with SUP-B15, in the test with HepG2 and in the test on BJ was > 37.9 µM each time.
`COc1ccc(-c2cc(=O)c3c(OC)cc(OC)cc3n2S(=O)(=O)c2cccc(Br)c2)cc1`: the concentration for a half-maximal effect (EC50) in the test on KOPN-8, in the test on SUP-B15, in the test with HepG2 and in the test with BJ was > 58.6 µM each time.
In the case of `COc1ccc(-c2c(Cl)c(=O)c3c(OC)cc(OC)cc3n2S(=O)(=O)c2ccc(OC)cc2)cc1`, the values for the 50% effective concentration (EC50) with KOPN-8, with SUP-B15 and in the test on BJ were 19.1 µM, 17.9 µM and 90 µM, respectively.
In the case of `COc1ccc(-c2cc(=O)c3c(OC)cc(OC)cc3n2S(=O)(=O)c2cccc([N+](=O)[O-])c2)cc1`, the 50% effective concentration (EC50) in the test on KOPN-8, in the test with SUP-B15, in the test with HepG2 and in the test on BJ was > 39.7 µM in each case.
As to `COc1ccc(-c2cc(=O)c3c(OC)cc(OC)cc3n2S(=O)(=O)Cc2ccccc2)cc1`, the concentration for a half-maximal effect (EC50) in the test on KOPN-8, in the test with SUP-B15, with HepG2 and in the test on BJ was > 34.5 µM in each case.

As a reminder, the EC50 is the concentration needed to bring the measured effect to its halfway point. Higher therefore signals weaker potency.
